Measured values from ChEMBL document CHEMBL3399956, “Cell-based biological evaluations of 5-(3-bromo-4-phenethoxybenzylidene)thiazolidine-2,4-dione as promising wound healing agent” (Bioorg Med Chem, 2015).
Calls of active or inactive are those of the source. The rule behind the calls is not given here.

Columns and labels:
[1] = molecular target: T1, 15-hydroxyprostaglandin dehydrogenase [NAD(+)] (Homo sapiens) (UniProt P15428); assay: Inhibition of 15-PGDH in human A549 cells assessed as increase in PGE2 level at 5 uM after 12 hrs by immunoassay relative to control; assay type: cell-based
T1 sequence (whole entry): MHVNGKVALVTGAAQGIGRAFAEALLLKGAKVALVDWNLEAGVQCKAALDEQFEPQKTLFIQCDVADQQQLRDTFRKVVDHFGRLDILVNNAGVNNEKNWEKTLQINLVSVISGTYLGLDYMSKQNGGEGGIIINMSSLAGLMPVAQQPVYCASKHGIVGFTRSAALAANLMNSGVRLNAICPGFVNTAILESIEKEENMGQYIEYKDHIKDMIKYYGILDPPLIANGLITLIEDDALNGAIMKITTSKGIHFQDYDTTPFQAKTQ

HaCaT [2] = assay: Induction of SCL expression in human HaCaT cells at 5 uM by qRT-PCR analysis relative to control; assay type: functional
[3] = molecular target: T2, 15-hydroxyprostaglandin dehydrogenase [NAD(+)] (Homo sapiens, UniProt P15428); assay: Inhibition of 15-PGDH (unknown origin) by fluorescence spectrophotometry
T2 sequence (P15428 whole entry): T1 sequence (whole entry)

[4] = molecular target: T1, 15-hydroxyprostaglandin dehydrogenase [NAD(+)] (Homo sapiens); assay: Inhibition of 15-PGDH in human A549 cells assessed as increase in PGE2 level after 12 hrs by immunoassay; assay type: cell-based
HaCaT [5] = assay: In vitro wound healing effect on human HaCaT cells assessed as improvement wound healing at 5 uM after 48 hrs; assay type: functional, cell-based
HaCaT [6] = assay: In vitro wound healing effect on human HaCaT cells assessed as wound healing at 5 uM after 48 hrs in presence of 15-PGDH; assay type: functional, cell-based
HS27 [7] = assay: In vitro wound healing effect on human HS27 cells assessed as wound healing at 5 uM after 48 hrs; assay type: functional, cell-based
HS27 [8] = assay: Induction of SCL expression in human HS27 cells at 5 uM by qRT-PCR analysis; assay type: functional, cell-based
HS27 [9] = assay: Induction of LMO2 expression in human HS27 cells at 5 uM by qRT-PCR analysis; assay type: functional, cell-based
HS27 [10] = assay: Induction of GATA2 expression in human HS27 cells at 5 uM by qRT-PCR analysis; assay type: functional, cell-based
HS27 [11] = assay: Induction of RUNX1 expression in human HS27 cells at 5 uM by qRT-PCR analysis; assay type: functional, cell-based
HS27 [12] = assay: Induction of KDR expression in human HS27 cells at 5 uM by qRT-PCR analysis; assay type: functional, cell-based
HS27 [13] = assay: Induction of C-MYB expression in human HS27 cells at 5 uM by qRT-PCR analysis; assay type: functional, cell-based

SMILES | Activity [1] | Activity (HaCaT [2]) | IC50 [3] | Activity [4] | fold change (FC) [1] | Activity (HaCaT [5]) | inhibition (HaCaT [6]) | inhibition (HS27 [7]) | fold change (FC) (HaCaT [2]) | Activity (HS27 [8]) | Activity (HS27 [9]) | Activity (HS27 [10]) | Activity (HS27 [11]) | Activity (HS27 [12]) | Activity (HS27 [13])
O=C1NC(=O)/C(=C/c2ccc(OCCCc3ccccc3)c(Br)c2)S1 | Active |  |  |  |  |  |  |  |  |  |  |  |  |  | 
COc1ccc2c(c1)c(CC(=O)O)c(C)n2C(=O)c1ccc(Cl)cc1 |  | inactive |  |  |  |  |  |  |  |  |  |  |  |  | 
O=C1NC(=O)/C(=C/c2ccc(OCCc3ccccc3)c(Br)c2)S1 | 451 pg/mL |  | 4 nM | Dose-dependent effect | 7 | Active | inactive | inactive | 2 | inactive | inactive | inactive | inactive | inactive | inactive
